The term mortality denotes the percentage killed. Higher therefore signals fewer survivors.

The test system of data set [1] is emulsion-induced hyperlipidemic rats. The experiment in a line: Test 1: antihyperlipidemic activity in emulsion-induced hyperlipidemic rats (serum Chol, HDL-Chol, liver weight). Type of data set: in vivo, male S.D. rats. The settings on record: 3 days, vs control; for change in vivo at 300 mg/kg / inhibition in vivo at 300 mg/kg: Rattus norvegicus, po, 72 h, 300 mg/kg/day via stomach tube; for change in vivo at 300 mg/kg: read-out: Increase rate of serum HDL-Chol; for inhibition in vivo at 300 mg/kg: read-out: Reduction rate of serum Chol.; for Degree of hepatomegaly (change rate of the liver weight): liver weight per 100 g body weight, 300 mg/kg/day. As for the experimental part:
The antihyperlipidemic activity in emulsion-induced hyperlipidemic rats:
Male S.D. rats weighing 80-90 g (4 weeks old) were used. They were divided into groups of 5 to 6 rats each. The test compounds suspended in 0.5% CMC-Na(carboxymethyl cellulose sodium salt) were given to the rats in a daily dose of 4 ml/kg (i.e. 300 mg/kg of the test compounds) via stomach tube every 10:00 a.m. After 30 min., lipids emulsion having the following composition was orally given to the rats in an amount of 2.5 ml per rat.
Cholic acid sodium salt 10.0 g
During the experimental period of 3 days, the rats were fed on a standard commercial diet and water ad libitum. […] The total cholesterol and HDL cholesterol were measured.
The weight of the liver was measured. To the control group, only the aqueous CMC-Na solution and the lipids emulsion were given.
The fractionation of lipoproteins was conducted by a dextran sulfate-MgCl2 precipitation method.
Cholesterol in serum was measured by means of a cholesterol measuring kit (Cholesterol C-Test Wako, manufactured by Wako Junyaku Co., Ltd.), and cholesterol in HDL was measured by means of NC Hi-Set, manufactured by Nippon Chemiphar Co., Ltd.
Further, the reduction rate of Chol was calculated by the following equation. [formula] where A is the amount of serum Chol (mg/dl) of the control group, and B is the amount of serum Chol (mg/dl) of the group to which the therapeutic agent was administered.
Likewise, the increase rate of HDL-Chol was calculated by the following equation. [formula] where C is the amount of serum HDL-Chol (mg/dl) of the control group, and D is the amount of serum HDL-Chol (mg/dl) of the group to which the therapeutic agent was administered.
The degree of hepatomegaly (i.e. the change rate of the liver weight) was calculated by the following equation. [formula] where E is the liver weight (g) per 100 g of the body weight of the control group, and F is the liver weight (g) per 100 g of the body weight of the group to which the therapeutic agent was administered.

Data set [2] is described as follows: Test 2: Acute toxicity (mortality after seven days). The data set is classed as in vivo. As to conditions: mouse, in vivo, po, 8000 mg/kg p.o., male ddY mice. Here is the method: The test compounds suspended in 0.5% CMC-Na were administered p.o. to male ddY mice. The acute toxicity was determined based on the mortality after seven days. In respect of the compounds of Examples 1, 9, 10 and 11 of the present invention, the mortality was 0% even at a dose of as high as 8000 mg/kg by oral administration.

Take `CCCCC/C=C\C/C=C\CCCCCCCCOc1c2ncnc(SCC(=O)OCC)c2nn1C` [Example 10, 2-Methyl-3-linoleyloxy-7-ethoxycarbonylmethylthio-pyrazolo[4,3-d]pyrimidine]: in data set [1], the change in vivo at 300 mg/kg is 13%, the inhibition in vivo at 300 mg/kg worked out at 76% and the “Degree of hepatomegaly (change rate of the liver weight)” value is “+12%”. Also, in data set [2], the mortality at 168 h was determined as 0%.
As for `CCOC(=O)CSc1ncnc2c(OCCC(C)CCCC(C)CCCC(C)CCCC(C)C)n(C)nc12` (stereo not shown) [Example 40, 2-Methyl-3-(3,7,11,15-tetramethylhexadecyloxy)-7-ethoxycarbonylmethylthio-pyrazolo[4,3-d]pyrimidine], the inhibition in vivo at 300 mg/kg in data set [1] was 50%.
`CCCCCCCCCCCCCCCCOc1c2ncnc(SCc3ccccc3)c2nn1C` [Example 19, 2-Methyl-3-n-hexadecyloxy-7-benzylthio-pyrazolo[4,3-d]pyrimidine]: in data set [1], the change in vivo at 300 mg/kg stood at 31%, the inhibition in vivo at 300 mg/kg turned out to be 42% and the “Degree of hepatomegaly (change rate of the liver weight)” value is recorded as “+8%”.
For `CCCCC/C=C\C/C=C\CCCCCCCCOc1c2ncnc(SCC(=O)OC)c2nn1C` [Example 54, 2-Methyl-3-linoleyloxy-7-methoxycarbonylmethylthio-pyrazolo[4,3-d]pyrimidine], in data set [1], the inhibition in vivo at 300 mg/kg was 79%.
Same read-out and setting: the result for `CCOC(=O)CSc1ncnc2c(OCCOCc3ccccc3)n(C)nc12` [Example 36, 2-Methyl-3-(2-benzyloxyethoxy)-7-ethoxycarbonylmethylthio-pyrazolo[4,3-d]pyrimidine] reads 44%.
`CCCCCCCCCCCCCCCCOc1c2ncnc(SCC(=O)c3ccccc3)c2nn1C` [Example 18, 2-Methyl-3-n-hexadecyloxy-7-benzoylmethylthio-pyrazolo[4,3-d]pyrimidine]: in data set [1], the change in vivo at 300 mg/kg is 42%, the inhibition in vivo at 300 mg/kg amounted to 35% and the “Degree of hepatomegaly (change rate of the liver weight)” value is “+4%”.
As to `CCCCCCCCCCCCCCCCCCCCOc1c2ncnc(SC(C)(C)C(=O)OCC)c2nn1C` [Example 29, 2-Methyl-3-n-eicosyloxy-7-(1-ethoxycarbonyl-1-methyl-ethylthio)-pyrazolo[4,3-d]pyrimidine], in data set [1], the inhibition in vivo at 300 mg/kg is 16%.
With `CCCCCC/C=C/CCCCCCCCCCOc1c2ncnc(SCC(=O)OCC)c2nn1C` [Example 72, 2-Methyl-3-vaccenyloxy-7-ethoxycarbonylmethylthio-pyrazolo[4,3-d]pyrimidine], the inhibition in vivo at 300 mg/kg in data set [1] worked out at 58%.
In the case of `CCCCCCCCCCCCCCCCOc1c2ncnc(SCC(=O)OCC)c2nn1-c1ccccc1` [Example 52, 2-Phenyl-3-n-hexadecyloxy-7-ethoxycarbonylmethylthio-pyrazolo[4,3-d]pyrimidine], the inhibition in vivo at 300 mg/kg in data set [1] was 30%.
In the case of `CCOC(=O)CSc1ncnc2c(OCCC(C)CCCC(C)CCCC(C)C)n(C)nc12` (stereo not shown) [Example 41, 2-Methyl-3-(3,7,11-trimethyl-dodecyloxy)-7-ethoxycarbonylmethylthio-pyrazolo[4,3-d]pyrimidine], in data set [1], the inhibition in vivo at 300 mg/kg came out at 48%.
`CCCCCCCOc1c2ncnc(SCC(=O)OCC)c2nn1-c1ccccc1` [Example 31, 2-Phenyl-3-n-heptyloxy-7-ethoxycarbonylmethylthio-pyrazolo[4,3-d]pyrimidine]: the inhibition in vivo at 300 mg/kg in data set [1] was 51%.
Same read-out and setting: next, `CCCCCCCCCCCCCCCCOc1c2ncnc(SCCc3ccccc3)c2nn1C` [Example 21, 2-Methyl-3-n-hexadecyloxy-7-phenethylthio-pyrazolo[d]pyrimidine]: 10%; `CCCCCCCC/C=C\CCCCCCCCOc1c2ncnc(SCC(=O)OCC)c2nn1-c1ccccc1` [Example 50, 2-Phenyl-3-oleyloxy-7-ethoxycarbonylmethylthio-pyrazolo[4,3-d]pyrimidine]: 35%; `CCCCCCCCCCCCOc1c2ncnc(SC(C)(C)C(=O)OCC)c2nn1C` [Example 28, 2-Methyl-3-n-dodecyloxy-7-(1-ethoxycarbonyl-1-methyl-ethylthio)-pyrazolo[4,3-d]pyrimidine]: 36%.
Take `CCCCCCCCCCCCCCCCOc1c2ncnc(SCCCC(=O)OCC)c2nn1C` [Example 17, 2-Methyl-3-n-hexadecyloxy-7-(3-ethoxycarbonylpropylthio)-pyrazolo[4,3-d]pyrimidine]: in data set [1], the inhibition in vivo at 300 mg/kg was determined as 49% and the “Degree of hepatomegaly (change rate of the liver weight)” value is recorded as “+5%”.
As to `CCCCCCCC/C=C\CCCCCCCCCCCCOc1c2ncnc(SCC(=O)OCC)c2nn1C` [Example 69, 2-Methyl-3-erucyloxy-7-ethoxycarbonylmethylthio-pyrazolo[4,3-d]pyrimidine], the inhibition in vivo at 300 mg/kg in data set [1] is 59%.
Consider `CCCCCCCCCCCCCCCCCOc1c2ncnc(SCC(=O)OCC)c2nn1C` [Example 5], for which, in data set [1], the change in vivo at 300 mg/kg amounted to 38%, the inhibition in vivo at 300 mg/kg stood at 21% and the “Degree of hepatomegaly (change rate of the liver weight)” value was “+3%”.
As for `C=CCSc1ncnc2c(OCCCCCCCCCCCCCCCC)n(C)nc12` [Example 22], the inhibition in vivo at 300 mg/kg in data set [1] was found to be 11%.
On the same count and under the same terms, the result for `CCCCC/C=C\C/C=C\CCCCCCCCOc1c2ncnc(SCC#N)c2nn1C` [Example 57, 2-Methyl-3-linoleyloxy-7-cyanomethylthio-pyrazolo[4,3-d]pyrimidine] reads 61%; that for `C=CCSc1ncnc2c(OCCCCCCCC/C=C\C/C=C\CCCCC)n(C)nc12` [Example 64, 2-Methyl-3-linoleyloxy-7-allylthio-pyrazolo[4,3-d]pyrimidine], 12%.
`CCCCCCCCCCCCCCCOc1c2ncnc(SCC(=O)OCC)c2nn1C` [Example 4, 2-Methyl-3-n-pentadecyloxy-7-ethoxycarbonylmethylthio-pyrazolo[4,3-d]pyrimidine]: in data set [1], the change in vivo at 300 mg/kg was determined as 20%, the inhibition in vivo at 300 mg/kg was 48% and the “Degree of hepatomegaly (change rate of the liver weight)” value is “+2%”.
As to `CCOC(=O)CSc1ncnc2c(OCCOCc3ccc(C(C)(C)C)cc3)n(C)nc12` [Example 38, 2-Methyl-3-[2-(4-t-butylbenzyloxy)ethoxy]-7-ethoxycarbonylmethylthio-pyrazolo[4,3-d]pyrimidine], the inhibition in vivo at 300 mg/kg in data set [1] was determined as 15%.
On the same count and under the same terms, the result for `CCCCCCCCCCCCCCCCCCCCOc1c2ncnc(SCC(=O)OCC)c2nn1C` [Example 8, 2-Methyl-3-n-eicosanyloxy-7-ethoxycarbonylmethylthio-pyrazolo[4,3-d]pyrimidine] reads 37%; that for `CCCCSCCOc1c2ncnc(SCC(=O)OCC)c2nn1-c1ccccc1` [Example 49, 2-Phenyl-3-(3-thia-heptyloxy)-7-ethoxycarbonylmethylthio-pyrazolo[4,3-d]pyrimidine], 14%; that for `CCCC=CCCOc1c2ncnc(SCC(=O)OCC)c2nn1-c1ccccc1` [Example 53, 2-Phenyl-3-(3-heptenyloxy)-7-ethoxycarbonylmethylthio-pyrazolo[4,3-d]pyrimidine], 11%.
On to `CCCCCCCCCCCCCCOc1c2ncnc(SCC(=O)OCC)c2nn1C` [Example 3], for which the inhibition in vivo at 300 mg/kg in data set [1] turned out to be 41%.
The same measure, in the same setting: the result for `CCC=CCCOc1c2ncnc(SCC(=O)OCC)c2nn1-c1ccccc1` [Example 47, 2-Phenyl-3-(3-hexenyloxy)-7-ethoxycarbonylmethylthio-pyrazolo[4,3-d]pyrimidine] reads 10%; that for `CCCCCCCCCCCCCCCCOc1c2ncnc(SCC(=O)OCCCC)c2nn1C` [Example 33, 2-Methyl-3-n-hexadecyloxy-7-n-butoxycarbonylmethylthio-pyrazolo[4,3-d]pyrimidine], 39%.
Still for that read-out and setting: the result for `CCCCCCCCCCCCCCCCOc1c2ncnc(SC(C)(C)C(=O)OCC)c2nn1C` [Example 26, 2-Methyl-3-n-hexadecyloxy-7-(1-ethoxycarbonyl-1-methyl-ethylthio)pyrazolo [4,3-d]pyrimidine] reads 16%; that for `CCCCCCCCCCCCCCCCOc1c2ncnc(SCc3ccc(Cl)c(Cl)c3)c2nn1C` [Example 20, 2-Methyl-3-n-hexadecyloxy-7-(3,4-dichlorophenylmethylthio)-pyrazolo[4,3-d]pyrimidine], 19%.
Same read-out and setting: next, `CCCCC/C=C\C/C=C\CCCCCCCCOc1c2ncnc(SCCCCCCCCCCC(=O)OCC)c2nn1C` [Example 61]: 35%.

Source of the values: patent US4654348A, “Pyrazolo[4,3-d]pyrimidine derivative, process for its production, antihyperlipidemic agent containing it, its intermediate, and process for the production of the intermediate” (Nissan Chemical Industries Ltd., priority 1984, dated 1987).
